Here are results for four substances from paper PMC4122979, “The N-terminal portion of autoinhibitory element modulates human endothelial nitric-oxide synthase activity through coordinated controls of phosphorylation at Thr^495 and Ser^1177” (Bioscience Reports, 2014).

The test system of assay [1] is eNOS. Description: Inhibition of eNOS reductase activity (cytochrome c reduction) by CBD peptides. The class given is biochemical, human. The note with it: 10 μM peptide; for inhibition of cytochrome c reductase activity / effect on cytochrome c reduction (electron transfer within reductase domain), in words: 50 nM eNOS, 0.5 μM CaM, 100 μM CaCl2, 50 μM cytochrome c, 100 μM β-NADPH, pH 7.5, 25°C, 550 nm; for inhibition of cytochrome c reductase activity: relative to rate without peptide, mean of triplicate experiments; for order of inhibitory potency to eNOS activity: intra-domain electron transfer (cytochrome c reduction): same order stated for CaM binding affinity. On the procedure: (§1) The expression and purification of eNOS from Sf21 cells was carried out essentially same as previously reported. The inhibition of eNOS oxygenase activity by unmodified or modified CBDs was tested at 37°C for 4 min by measuring L-[^3H]citrulline formation in a mixture containing 25 mM Tris, pH 7.5, 100 mM NaCl, 0.5 μM CaM, 0.2 mM EDTA, 0.3 mM CaCl2, 100 μM β-NADPH, 10 μM H4B, 20 μM L-arginine, 1 μCi of L-[^3H]arginine, 100 nM eNOS, and in the presence or absence of 10 μM of each peptide. Cytochrome c reduction was determined at room temperature (25°C) in a reaction mixture containing 25 mM Tris–HCl, pH 7.5, 100 mM NaCl, 10% glycerol, 50 μM cytochrome c, 0.5 μM CaM, 100 μM CaCl2 and 100 μM β-NADPH in the presence or absence of 10 μM of each peptide. The reaction was initiated by addition of 50 nM eNOS and monitored at 550 nm in a GE geneQuant100 spectrophotometer. Activity was determined using a ΔE550=21 mM^−1cm^−1. An assay in the absence of CaM was carried out to serve as baseline reference.
(§2) Figure 6 Evaluation of inhibitory potency of CBD variants on eNOS activity Modified or unmodified CBD peptides were assessed for their ability to inhibit (A) citrulline formation activity and (B) Cytochrome c reduction. CR denotes a complete reaction mixture; CR-CaM denotes omission of CaM from the complete reaction mixture; CR+T495 indicates the addition of 10 μM of unmodified CBD (T495) to the complete reaction mixture; CR+A495 denotes the addition of 10 μM of phosphonull CBD (A495) to the complete reaction mixture; CR+D495 indicates the addition of 10 μM of phosphomimetic CBD (D495) to the complete reaction mixture; CR+pT495 denotes the addition of 10 μM of phosphorylated CBD (pT495) to the complete reaction mixture. The complete reaction mixture for L-[^3H]citrulline formation contains 25 mM Tris, pH 7.5, 100 mM NaCl, 0.5 μM CaM, 0.2 mM EDTA, 0.3 mM CaCl2, 100 μM β-NADPH, 10 μM H4B, 20 μM L-arginine, 1 μCi of L-[^3H]arginine, 100 nM eNOS. The complete reaction mixture for cytochrome c reduction contains 25 mM Tris–HCl, pH 7.5, 100 mM NaCl, 10% glycerol, 50 μM cytochrome c, 0.5 μM CaM, 100 μM CaCl2 and 100 μM β-NADPH. The catalytic activity was normalized to give percentages relative to the reaction rate in the absence of each peptide. Each bar represents mean±S.D. of triplicate experiments. Under these conditions, the activities for eNOS bound to CaM were 12±2/min for citrulline formation, and 295±15/min for cytochrome c reduction. Data are presented as means±S.D.*denotes P<0.05, ** P<0.01, NS, not significant difference as compared with that in the absence of synthetic CBD peptides. Each experiment was performed in triplicate and repeated three times.

Another assay has as its system human CaM. As to the kind of experiment: CaM mobility shift gel (CBD peptide binding to CaM). Particulars: 200 pmol CaM; for order of binding affinity for CBD variants to CaM: densitometric analysis of attenuation of free CaM bands (I/I0 versus peptide:CaM ratio), 100 μM CaCl2, pH 7.5, triplicate gels (n=4 in Figure 5 legend); for CaM-peptide complex formation: non-denaturing, non-reducing PAGE (18% gel), peptide 0–2000 pmol, 1 h, 20 mM Tris, pH 7.5, 100 μM CaCl2, Coomassie staining. On the procedure:
Human CaM was purified essentially as described previously. CaM (200 pmol) was incubated with each peptide at several molar ratios for 1 h in 10 μl of buffer containing 20 mM Tris, pH 7.5 with 100 μM CaCl2. The sample was subjected to non-denaturing, non-reducing PAGE (18% gel) at 30 mA under high Ca^2+ conditions (100 μM free Ca^2+ in all gel buffers). Binding of peptides to CaM was visualized by Coomassie Brilliant Blue R-250 staining. The relative amount of CaM on the gel at each peptide concentration (I) was determined by densitometry and normalized to CaM in the absence of peptide (I0). The data are plotted as the mean I/I0±S.D. (n=4) versus peptide:CaM ratio.
What needs to be explained is why a similar activation of eNOS is observed with little effect on phosphorylation of Thr^495 in mutant Δ605. Thus, it is difficult at this stage to conclude the precise roles of Thr^495 dephosphorylation in the activation of eNOS. Conflicting conclusions have also been drawn from earlier observations in the role of Thr^495 phosphorylation with eNOS activation. It has been reported that eNOS activity is increased by phosphorylation of Ser^1177 despite enhanced Thr^495 phosphorylation. […] To resolve this discrepancy, we synthesized peptides representing heNOS CBD (residues 491–510) with point mutations at Thr^495 site (Figure 5A) and determined the apparent affinity of the CBD variants to CaM. Each peptide with increasing concentrations (0–2000 pmol) was incubated with purified CaM at a fixed concentration (200 pmol) in the presence of 100 μM CaCl2. The mixtures were electrophoresed on non-reducing, non-denaturing gels. […] Peptide–CaM complexes migrate as higher molecular weight bands than free CaM in the presence of calcium. […] The extent of CaM-peptide interaction was assessed by densitometric analysis of attenuation of free CaM bands in the presence of increasing concentrations of each peptide.
Figure 5 Interaction of synthetic CBD peptides with calcium/CaM (A) Peptide CBD sequences (residues 491–510, based on heNOS) with unmodified T495 (T495), phosphonull A substitution (A495, red colour), phosphomimetic substitution (D495, blue colour) and phosphorylated T495 (pT495, brown colour) are indicated. (B) The synthetic CBD variants were incubated with CaM (200 pmol) by increasing peptide:CaM molar ratios in the presence of 100 μM CaCl2 before electrophoresis. The samples were analysed on 18% non-denaturing gels and visualized with Coomassie Brilliant Blue R-250. Representative Coomassie Brilliant Blue-stained gels of samples containing CaM and increasing molar ratios of T495, A495, D495 and pT495 are shown. The first lane in each gel contains CaM only, i.e., CBD/CaM ratio is 0. The rest CBD/CaM ratios were 0.1:1 (2nd lane), 0.2:1 (3rd lane), 0.4:1 (4th lane), 0.8:1 (5th lane), 1.6:1 (6th lane), 3.2:1 (7th lane), 6.4:1 (8th lane) and 12.8:1 (9th lane). CBD–CaM complexes and free CaM are denoted. (C) The relative amount of CaM on the gel at each peptide concentration (I) was determined by densitometry and normalized to CaM in the absence of peptide (I0). The data are plotted as the mean I/I0±S.D. (n=4) versus peptide:CaM ratio.

The subject of assay [2] is eNOS. As to the kind of experiment: Inhibition of eNOS oxygenase activity (L-[^3H]citrulline formation) by CBD peptides. It counts as biochemical, human. Particulars: 10 μM peptide; for inhibition of L-citrulline formation: relative to rate without peptide, mean of triplicate experiments; for order of inhibitory potency to eNOS activity: inter-domain electron transfer (citrulline formation): same order stated for CaM binding affinity. The method, then:
as §1, §2

The mark [3] stands for this setting: 100 nM eNOS, 0.5 μM CaM, 0.3 mM CaCl2, 20 μM L-arginine, pH 7.5, 37°C, 4 min.

For the substance “TRKKD^495FKEVANAVKISASLM [D495, phosphomimetic CBD peptide, heNOS residues 491–510]”, in the assay on eNOS [1], the “inhibition of cytochrome c reductase activity” value stood at 75% and the “order of inhibitory potency to eNOS activity: intra-domain electron transfer (cytochrome c reduction)” value is recorded as “T495>A495>D495>pT495”. For the same substance, in the assay with human CaM, the “order of binding affinity for CBD variants to CaM” value (“order of binding affinity” for short) is given as “T495>A495>D495>pT495” and the CaM-peptide complex formation entry is “also showed CaM-peptide binding”. In addition, the “inhibition of L-citrulline formation” value in the assay on eNOS [2] (setting [3]) was 20%. The “order of inhibitory potency to eNOS activity: inter-domain electron transfer (citrulline formation)” value in the assay with eNOS [2] is recorded as “T495>A495>D495>pT495”.

For the substance “TRKKT^495FKEVANAVKISASLM [T495, Unmodified CBD peptide, heNOS residues 491–510]”, in the assay with eNOS [1], the “effect on cytochrome c reduction (electron transfer within reductase domain), in words” value is “inhibits the activity completely” and the “order of inhibitory potency to eNOS activity: intra-domain electron transfer (cytochrome c reduction)” value is “T495>A495>D495>pT495”. For the same substance, in the assay with human CaM, the “order of binding affinity” value was “T495>A495>D495>pT495”; the CaM-peptide complex formation result was “exhibited increases in CaM–peptide complex bands and reciprocal attenuation of free CaM bands”. Besides, the “inhibition of L-citrulline formation” value with eNOS [2] (setting [3]) turned out to be 87%. Further, the “order of inhibitory potency to eNOS activity: inter-domain electron transfer (citrulline formation)” value in the assay with eNOS [2] is on record as “T495>A495>D495>pT495”.

Regarding “TRKKpT^495FKEVANAVKISASLM [pT495, phosphorylated CBD peptide, heNOS residues 491–510]”, in the assay on eNOS [1], the “effect on cytochrome c reduction (electron transfer within reductase domain), in words” value was “virtually no inhibition on electron transfer within reductase domain” and the “order of inhibitory potency to eNOS activity: intra-domain electron transfer (cytochrome c reduction)” value is “T495>A495>D495>pT495”. In the assay with human CaM, the “order of binding affinity” value is listed as “T495>A495>D495>pT495” and the CaM-peptide complex formation entry is on record as “nearly no detectable peptide-CaM complex”. Besides, the “effect on eNOS oxygenase activity (citrulline formation), in words” value in the assay on eNOS [2] (setting [3]) is recorded as “did not interfere with eNOS oxygenase activity”. Besides, in the assay on eNOS [2], the “order of inhibitory potency to eNOS activity: inter-domain electron transfer (citrulline formation)” value was “T495>A495>D495>pT495”.

Take “TRKKA^495FKEVANAVKISASLM [A495, phospho-null CBD peptide, heNOS residues 491–510]”: in the assay with eNOS [1], the “inhibition of cytochrome c reductase activity” value was 90% and the “order of inhibitory potency to eNOS activity: intra-domain electron transfer (cytochrome c reduction)” value is recorded as “T495>A495>D495>pT495”. Also, in the assay on human CaM, the “order of binding affinity” value was “T495>A495>D495>pT495” and the CaM-peptide complex formation entry was “also showed CaM-peptide binding”. Also, the “inhibition of L-citrulline formation” value with eNOS [2] (setting [3]) stood at 70%. Moreover, the “order of inhibitory potency to eNOS activity: inter-domain electron transfer (citrulline formation)” value in the assay on eNOS [2] was “T495>A495>D495>pT495”.
